Test results: US11898187B2 (priority 2017, dated 2024)

molecular target: N-glycosyltransferase from Actinobacillus pleuropneumoniae (Actinobacillus pleuropneumoniae serotype 5b, UniProt A3N2T3); assay: GlycoSCORES: peptide glycosylation by NGT, read by SAMDI-MS; type: biochemical; conditions: 50 μM peptide, 2.5 mM UDP-Glc, 0.5 μM purified NGT, 30° C., 3 h
Sequence (A3N2T3 whole entry): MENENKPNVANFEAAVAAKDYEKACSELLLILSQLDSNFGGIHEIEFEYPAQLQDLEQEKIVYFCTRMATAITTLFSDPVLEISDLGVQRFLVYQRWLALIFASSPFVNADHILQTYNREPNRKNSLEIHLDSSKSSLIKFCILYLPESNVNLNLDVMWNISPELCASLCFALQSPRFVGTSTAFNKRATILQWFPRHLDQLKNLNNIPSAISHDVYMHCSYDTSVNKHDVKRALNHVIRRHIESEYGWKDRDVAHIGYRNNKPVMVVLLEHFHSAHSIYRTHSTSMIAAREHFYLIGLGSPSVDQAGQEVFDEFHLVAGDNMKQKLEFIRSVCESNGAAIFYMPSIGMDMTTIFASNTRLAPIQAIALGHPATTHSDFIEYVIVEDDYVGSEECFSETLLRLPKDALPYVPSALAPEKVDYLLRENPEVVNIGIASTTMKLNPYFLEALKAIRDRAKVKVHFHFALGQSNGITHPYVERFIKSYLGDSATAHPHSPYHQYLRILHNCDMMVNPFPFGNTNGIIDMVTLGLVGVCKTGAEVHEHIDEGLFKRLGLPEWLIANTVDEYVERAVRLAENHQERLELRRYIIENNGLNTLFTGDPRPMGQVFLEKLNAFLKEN

| Molecule | glucose modification of truncated GSDQNATF peptides |
| --- | --- |
| CNAT | could be modified by NGT |
| QNATFC | most efficient glucose modification |

same assay, conditions: 4-mer peptides, fraction modified (0-1)

| Molecule | MO[…] |
| --- | --- |
| ANLT | 0.6957 |
| GNVS | 0.6117 |
| HNRT | 0.6962 |
| MNRT | 0.6724 |
| TNHS | 0.5091 |
| WNIS | 0.746 |
| PNIS | 0.8821 |
| ENVS | 0.6584 |
| PNRT | 0.8662 |
| SNIT | 0.7453 |
| TNST | 0.6424 |
| GNHT | 0.7856 |
| GNWS | 0.72 |
| PNYT | 0.8963 |
| SNVT | 0.9488 |
| SNHS | 0.5937 |
| NNAT | 0.7664 |
| ANST | 0.7846 |
| PNMT | 0.8399 |
| SNYT | 0.6177 |
| MNVS | 0.9118 |
| ENVT | 0.8903 |
| VNVT | 0.8081 |

| Molecule | MO[…] |
| --- | --- |
| MNVT | 0.8374 |
| ANVS | 0.9611 |
| PNAT | 0.8919 |
| PNLT | 0.8254 |
| ENST | 0.6042 |
| ENHT | 0.7656 |
| HNVS | 0.9185 |
| MNIS | 0.5286 |
| ANVT | 0.9844 |
| WNRT | 0.6933 |
| MNAT | 0.7903 |
| NNHS | 0.6848 |
| DNVT | 0.5073 |
| SNST | 0.5156 |
| GNYT | 0.5195 |
| NNHT | 0.8624 |
| ANRT | 0.8206 |
| LNIT | 0.5288 |
| HNAT | 0.7427 |
| WNHT | 0.8335 |
| DNHT | 0.7287 |
| VNIT | 0.6873 |
| SNAT | 0.8383 |

| Molecule | MO[…] |
| --- | --- |
| ANTT | 0.7872 |
| PNST | 0.8271 |
| PNHS | 0.6988 |
| SNTT | 0.5496 |
| ANAT | 0.9101 |
| GNWT | 0.9409 |
| MNHS | 0.6816 |
| TNHT | 0.8444 |
| PNMS | 0.636 |
| TNVS | 0.8695 |
| HNIS | 0.704 |
| ENRT | 0.7271 |
| ANHS | 0.6918 |
| ANYT | 0.91 |
| SNRT | 0.6821 |
| PNFT | 0.8402 |
| VNAT | 0.6982 |
| PNIT | 0.9358 |
| MNMT | 0.5547 |
| HNIT | 0.8411 |
| GNVT | 0.8843 |
| PNTT | 0.8532 |
| TNVT | 0.9096 |

| Molecule | MO[…] |
| --- | --- |
| LNVT | 0.6724 |
| INVT | 0.6893 |
| ANMS | 0.5336 |
| MNIT | 0.7393 |
| MNHT | 0.855 |
| WNAT | 0.8599 |
| ANYS | 0.6975 |
| NNVS | 0.7147 |
| WNIT | 0.9275 |
| SNVS | 0.971 |
| ANIS | 0.8694 |
| SNHT | 0.906 |
| PNYS | 0.6762 |
| NNRT | 0.7671 |
| PNVT | 0.9741 |
| ANFT | 0.8633 |
| TNAT | 0.7761 |
| QNVT | 0.5056 |
| MNTT | 0.5502 |
| PNVS | 0.9374 |
| HNHS | 0.6747 |

same assay, conditions: 6-mer sequences in GlycoSCORES peptide screens; 50 μM peptide, 2.5 mM UDP-Glc, 0.025 μM NGT for 1 h

| Molecule | glycosylation / modification efficiency [%] |
| --- | --- |
| YANATS | ~36 |
| FANATT | ~75 |

same assay, conditions: CFPS NGT, 50 μM peptide, 2.5 mM UDP-Glc, 30° C.

| Molecule | modification by NGT in GlycoSCORES peptide screens |
| --- | --- |
| GNWTRC | among the most efficiently glycosylated sequences |
| NHNETD | no detectable modification |
| GGNWTT | more efficiently glycosylated than any previously studied |
| YANATT | efficiently modified |

molecular target: T1, NGT (Actinobacillus pleuropneumoniae serotype 5b, UniProt A3N2T3); assay: not given; type: biochemical; conditions: 5 μM Im7 variant, 0.1 μM NGT, 2.5 mM UDP-Glc, 2.5 h, 30° C.
T1 sequence (A3N2T3 whole entry): as above

| Molecule | glycosylation of Im7 variant |
| --- | --- |
| GGNWTT | most efficient modification within the Im7 protein |

molecular target: T1, NGT; assay: not given; type: cell-based; conditions: BL21(DE3) E. coli; Fc induced 2 h, then NGT 30 min

| Molecule | glycosylation of Fc variant in E. coli cytoplasm |
| --- | --- |
| GGNWTT | most efficient glycosylation |

same assay, conditions: GlycTag at Asn1366; HMW1ct induced 1 h, then NGT 2 h

| Molecule | modification of HMW1ct variant in E. coli cytoplasm |
| --- | --- |
| GGNWTT | highest modification |

molecular target: T1, NGT; assay: not given; type: biochemical; conditions: 50 μM peptide, 1 mM sugar donor, purified NGT, 30° C.

| Molecule | efficiency of sugar transfer by NGT |
| --- | --- |
| O=c1ccn([C@@H]2O[C@H](COP(=O)(O)OP(=O)(O)O[C@H]3OC[C@@H](O)[C@H](O)[C@H]3O)[C@@H](O)[C@H]2O)c(=O)[nH]1 [UDP-Xyl, UDP-xylose] | much lower efficiencies |
